Measurements taken from patent US20250046404A1, “SYSTEMS AND METHODS RELATING TO A MACHINE LEARNING PREDICTION MODEL FOR PREDICTING MOLECULAR TARGETS OF SMALL MOLECULES” (KBR WYLE SERVICES, LLC, priority 2023, published 2025).

How the values were obtained:
[1] = test system: miR-451; assay: Zebrafish embryo erythrocyte accumulation with PTU, O-dianisidine hemoglobin stain; type: in vivo; conditions: for hemoglobinized cells / blood accumulation (O-dianisidine staining): 2-day-old embryos, lateral view, tail region, upon drug treatment
Protocol: Zebrafish embryos were incubated with different drug candidates predicted by sChemNET in combination with phenyl-thiourea (PTU), a chemical known to induce anemia due to oxidative stress when miR-451 activity is impaired, but not in wild-type embryos. 48 hours after fertilization, embryos display robust blood circulation. At this stage, the accumulation of mature erythrocytes can be easily assessed in transparent embryos using O-dianisidine, a hemoglobin-specific stain. Drugs impairing miR-451 activity induce anemia, while miR-451 boosting drugs will increase erythrocyte production (blood circulation).
Ventral images of 2-day-old embryos stained with O-dianisidine reveal hemoglobinized cells (brown staining).) for wild-type embryos and those treated with docetaxel, β-elemene and α-calcidol. Blood accumulated in the ventral region (ducts of Cuvier).

[2] = test system: miR-451; assay: Effect on levels of miR-451; conditions: zebrafish, in vivo
From the text: (§1) Either mechanism of action may be valid, as both pathways will allow the desired output, which complements miRNA activity.
(§2) Dicer processes miR-144, but at the same time is a target of miR-144 (PMID: 32191872), effectively canceling a potential drug-induced increase in miR-144 output.

[3] = test system: miR-144; assay: Effect on levels of miR-144; type: in vivo, Zebrafish; conditions: erythrocyte specific miR-144
From the text: as §1, §2

Compound | hemoglobinized cells / blood accumulation (O-dianisidine staining) [1] | blood production ([1]; zebrafish, in vivo) | levels of miR-451 [2] | levels of miR-144 (cluster partner of miR-451) [3]
CC(=O)O[C@@]12CO[C@@H]1C[C@H](O)[C@@]1(C)C(=O)[C@H](O)C3=C(C)[C@@H](OC(=O)[C@H](O)[C@@H](NC(=O)OC(C)(C)C)c4ccccc4)C[C@@](O)([C@@H](OC(=O)c4ccccc4)[C@H]21)C3(C)C [docetaxel] | accumulation of the excess of blood in the tail region |  |  | 
C=C1/C(=C\C=C2/CCC[C@]3(C)[C@@H]([C@H](C)CCCC(C)C)CC[C@@H]23)C[C@@H](O)C[C@@H]1O [α-Calcidol] | accumulation of the excess of blood in the tail region | boosts blood production | does not directly affect the levels | does not directly affect the levels
C=C[C@]1(C)CC[C@@H](C(=C)C)C[C@H]1C(=C)C [β-elemene] | accumulation of the excess of blood in the tail region |  |  | 
